Values of other authors in PubChem BioAssay AID1259409 (Chemical Carcinogenesis Research Information System (CCRIS), 2018).

Tested on: rodent chemically induced tumor inhibition, incidence and multiplicity
Experiment: CCRIS tumor inhibitor studies
Conditions: for outcome: Carcinogen: DIMETHYLBENZ[A]ANTHRACENE, Target Tissue: Type of Lesion: SKIN: PAPILLOMA, Dose [Carcinogen]: 10 NMOL ONCE

Cc1cc2cc3ccc4cccc5ccc(c2oc1=O)c3c45
outcome (57-97-6, Dose [Inhibitor]: 0, 200 NMOL IN ACETONE ONCE 5 MIN PRIOR TO CARCINOGEN DOSE (STUDY DURATION: 14 WK), Route [Inhibitor]: DERMAL, Species: MOUSE, Strain/Sex: SENCAR/FEMALE, Promoter: 12-O-TETRADECANOYLPHORBOL-13-ACETATE, 16561-29-8): 8.9, 2.8, 69%, p<0.05 | outcome (57-97-6, Dose [Inhibitor]: 0, 200 NMOL IN ACETONE ONCE 24 HR PRIOR TO CARCINOGEN DOSE (STUDY DURATION: 14 WK), Route [Inhibitor]: DERMAL, Species: MOUSE, Strain/Sex: SENCAR/FEMALE, Promoter: 12-O-TETRADECANOYLPHORBOL-13-ACETATE, 16561-29-8): 8.9, 2.1, 76%, p<0.05 | outcome (57-97-6, Dose [Inhibitor]: 0, 400 NMOL IN ACETONE ONCE 5 MIN PRIOR TO CARCINOGEN DOSE (STUDY DURATION: 14 WK), Route [Inhibitor]: DERMAL, Species: MOUSE, Strain/Sex: SENCAR/FEMALE, Promoter: 12-O-TETRADECANOYLPHORBOL-13-ACETATE, 16561-29-8): 8.9, 3.3, 63%, p<0.05

C=C(NC(=O)Cc1ccc(OS(=O)(=O)O)cc1)C(=O)O
tumour outcome (control, treated, inhibition, significance) (Carcinogen: 7,12-DIMETHYLBENZ[A]ANTHRACENE, 57-97-6, Dose [Inhibitor]: 0, 1 MMOL 15 MINUTES AFTER EACH PROMOTER TREATMENT BEGINNING 2 WK POST CARCINOGEN (STUDY DURATION: 42 WK), Route [Inhibitor]: DERMAL, Species: MOUSE, Strain/Sex: SENCAR/FEMALE, Target Tissue: Type of Lesion: SKIN: SQUAMOUS CELL CARCINOMA, Dose [Carcinogen]: 10 NMOL IN 0.2 ML ACETONE ONCE): 48%, 25%, 48%, not calculated

CC/C=C\C/C=C\C/C=C\C/C=C\C/C=C\CCCC(=O)O
tumour outcome (control, treated, inhibition, significance) (Carcinogen: 7,12-DIMETHYLBENZ[A]ANTHRACENE, 57-97-6, Dose [Inhibitor]: 0, 0.5 ML 2/WK FOR 19 WK BEGINNING 1 WK POST CARCINOGEN DOSE ADMINISTERED TO RATS FED HIGH-FAT (20% CORN OIL) DIETS (STU, Route [Inhibitor]: GAVAGE, Species: RAT, Strain/Sex: SPRAGUE-DAWLEY/FEMALE, Target Tissue: Type of Lesion: MAMMARY GLAND: ADENOCARCINOMA, Dose [Carcinogen]: 5 MG ONCE AT 50 D OF AGE, Promoter: NONE USED): 24/30 (80%), 10/24 (42%), 48%, p<0.05 | tumour outcome (control, treated, inhibition, significance) (Carcinogen: AZOXYMETHANE, 25843-45-2, Dose [Inhibitor]: 4.7% (VOL/VOL) IN 5% FAT DIET CONTAINING 0.3% LINOLEIC ACID FOR DURATION OF STUDY (STUDY DURATION: 26 WK), Route [Inhibitor]: ORAL, Species: RAT, Strain/Sex: DONRYU/MALE, Target Tissue: Type of Lesion: COLON: ADENOCARCINOMA, Dose [Carcinogen]: 7.4 MG/KG BW IN 0.9% SALINE SOLUTION 1/WK FOR FIRST 11 WK, Promoter: NONE USED): 20/29 (69%), 10/30 (33%), 52%, p<0.01

Brc1c(Br)c(Br)c2c(c1Br)Oc1c(Br)c(Br)c(Br)c(Br)c1O2
tumour outcome (control, treated, inhibition, significance) (Carcinogen: 7,12-DIMETHYLBENZ[A]ANTHRACENE, 57-97-6, Dose [Inhibitor]: 0, 17 NMOL 2/WK APPLIED 1 HR PRIOR TO EACH PROMOTER DOSE FOR 20 WK (STUDY DURATION: 21 WK), Route [Inhibitor]: DERMAL, Species: MOUSE, Target Tissue: Type of Lesion: SKIN: TUMOR, Dose [Carcinogen]: 390 NMOL ONCE, Promoter: 12-O-TETRADECANOYLPHORBOL-13-ACETATE, 16561-29-8): 100%, 93%, 7%, not calculated

CSS(C)(=O)=O
tumour outcome (control, treated, inhibition, significance) (Carcinogen: AZOXYMETHANE, 25843-45-2, Dose [Inhibitor]: 0, 20 PPM IN DIET FOR 32 WK BEGINNING 1 WK POST CARCINOGEN TREATMENT (STUDY DURATION: 36 WK), Route [Inhibitor]: ORAL, Species: RAT, Strain/Sex: (30,30)/(30,24), Target Tissue: Type of Lesion: SMALL INTESTINE: ADENOMA OR ADENOCARCINOMA, Dose [Carcinogen]: 15 MG/KG BW 1/WK FOR 3 WK, Promoter: NONE USED): 4/30 (13%), 1/24 (4%), 69%, not significant | tumour outcome (control, treated, inhibition, significance) (Carcinogen: AZOXYMETHANE, 25843-45-2, Dose [Inhibitor]: 0, 20 PPM IN DIET FOR 32 WK BEGINNING 1 WK POST CARCINOGEN TREATMENT (STUDY DURATION: 36 WK), Route [Inhibitor]: ORAL, Species: RAT, Strain/Sex: F344/MALE, Target Tissue: Type of Lesion: LARGE INTESTINE: ADENOMA OR ADENOCARCINOMA, Dose [Carcinogen]: 15 MG/KG BW 1/WK FOR 3 WK, Promoter: NONE USED): 17/30 (57%), 9/24 (38%), 33%, not significant | tumour outcome (control, treated, inhibition, significance) (Carcinogen: AZOXYMETHANE, 25843-45-2, Dose [Inhibitor]: 0, 100 PPM IN DIET FOR 32 WK BEGINNING 1 WK POST CARCINOGEN TREATMENT (STUDY DURATION: 36 WK), Route [Inhibitor]: ORAL, Species: RAT, Strain/Sex: F344/MALE, Target Tissue: Type of Lesion: LARGE INTESTINE: ADENOMA OR ADENOCARCINOMA, Dose [Carcinogen]: 15 MG/KG BW 1/WK FOR 3 WK, Promoter: NONE USED): 17/30 (57%), 2/28 (7%), 88%, p<0.0001 | tumour outcome (control, treated, inhibition, significance) (Carcinogen: AZOXYMETHANE, 25843-45-2, Dose [Inhibitor]: 0, 100 PPM IN DIET FOR 32 WK BEGINNING 1 WK POST CARCINOGEN TREATMENT (STUDY DURATION: 36 WK), Route [Inhibitor]: ORAL, Species: RAT, Strain/Sex: F344/MALE, Target Tissue: Type of Lesion: SMALL INTESTINE: ADENOMA OR ADENOCARCINOMA, Dose [Carcinogen]: 15 MG/KG BW 1/WK FOR 3 WK, Promoter: NONE USED): 4/30 (13%), 4/28 (14%), -7%, not significant | tumour outcome (control, treated, inhibition, significance) (Carcinogen: DIETHYLNITROSAMINE, 55-18-5, Dose [Inhibitor]: 0, 100 PPM IN DIET FOR 4 WK BEGINNING 1 WK PRIOR TO CARCINOGEN TREATMENT (STUDY DURATION: 24 WK), Route [Inhibitor]: ORAL, Species: RAT, Strain/Sex: F344/MALE, Target Tissue: Type of Lesion: LIVER: HEPATOCELLULAR ADENOMA, Dose [Carcinogen]: 100 MG/KG BW 1/WK FOR 3 WK, Promoter: PHENOBARBITAL, 50-06-6): 95%, 89%, 6%, not significant | tumour outcome (control, treated, inhibition, significance) (Carcinogen: DIETHYLNITROSAMINE, 55-18-5, Dose [Inhibitor]: 0, 100 PPM IN DIET FOR 4 WK BEGINNING 1 WK PRIOR TO CARCINOGEN TREATMENT (STUDY DURATION: 24 WK), Route [Inhibitor]: ORAL, Species: RAT, Strain/Sex: F344/MALE, Target Tissue: Type of Lesion: LIVER: HEPATOCELLULAR CARCINOMA, Dose [Carcinogen]: 100 MG/KG BW 1/WK FOR 3 WK, Promoter: PHENOBARBITAL, 50-06-6): 70%, 89%, -27%, not significant | tumour outcome (control, treated, inhibition, significance) (Carcinogen: DIETHYLNITROSAMINE, 55-18-5, Dose [Inhibitor]: 0, 100 PPM IN DIET FOR 20 WK BEGINNING 1 WK POST CARCINOGEN TREATMENT (STUDY DURATION: 24 WK), Route [Inhibitor]: ORAL, Species: RAT, Strain/Sex: F344/MALE, Target Tissue: Type of Lesion: LIVER: HEPATOCELLULAR ADENOMA, Dose [Carcinogen]: 100 MG/KG BW 1/WK FOR 3 WK, Promoter: PHENOBARBITAL, 50-06-6): 95%, 55%, 42%, p<0.005 | tumour outcome (control, treated, inhibition, significance) (Carcinogen: DIETHYLNITROSAMINE, 55-18-5, Dose [Inhibitor]: 0, 100 PPM IN DIET FOR 20 WK BEGINNING 1 WK POST CARCINOGEN TREATMENT (STUDY DURATION: 24 WK), Route [Inhibitor]: ORAL, Species: RAT, Strain/Sex: F344/MALE, Target Tissue: Type of Lesion: LIVER: HEPATOCELLULAR CARCINOMA, Dose [Carcinogen]: 100 MG/KG BW 1/WK FOR 3 WK, Promoter: PHENOBARBITAL, 50-06-6): 70%, 81%, -16%, not significant

CC(=O)O[C@@H]1[C@H]2[C@@H](OC(=O)c3ccccc3)[C@@H](OC(=O)c3ccccc3)[C@]3(C)[C@@H](OC(=O)c4ccccc4)[C@@H](OC(=O)c4ccccc4)C[C@@H](C)[C@@]13OC2(C)C
tumour outcome (control, treated, inhibition, significance) (Carcinogen: 7,12-DIMETHYLBENZ[A]ANTHRACENE, 57-97-6, Dose [Inhibitor]: 0, 85 NMOL IN 0.1 ML ACETONE 2/WK APPLIED 1 HR POST EACH PROMOTER DOSE BEGINNING 1 WK POST CARCINOGEN DOSE AND CONTINUIN, Route [Inhibitor]: DERMAL, Species: MOUSE, Strain/Sex: ICR/FEMALE, Target Tissue: Type of Lesion: SKIN: TUMOR, Dose [Carcinogen]: 390 NMOL IN 0.1 ML ACETONE ONCE, Promoter: 12-O-TETRADECANOYLPHORBOL-13-ACETATE, 16561-29-8): 100%, 52%, 48%, not calculated | tumour outcome (control, treated, inhibition, significance) (Carcinogen: 7,12-DIMETHYLBENZ[A]ANTHRACENE, 57-97-6, Dose [Inhibitor]: 0, 85 NMOL IN 0.1 ML ACETONE 2/WK APPLIED 1 HR PRIOR TO EACH PROMOTER DOSE BEGINNING 1 WK POST CARCINOGEN DOSE AND CONTI, Route [Inhibitor]: DERMAL, Species: MOUSE, Strain/Sex: ICR/FEMALE, Target Tissue: Type of Lesion: SKIN: TUMOR, Dose [Carcinogen]: 390 NMOL IN 0.1 ML ACETONE ONCE, Promoter: 12-O-TETRADECANOYLPHORBOL-13-ACETATE, 16561-29-8): 100%, 86%, 14%, not calculated
